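These data come from cells grown in 96-well plates and exposed to compound for 48 hours at five concentrations. TGI denotes the concentration required for complete inhibition of growth.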
Columns and labels:
Assay in all cases: NCI anticancer screen, dose series, 48 h
HT29 colon = tested on: HT29 colon
HCT-116 colon = tested on: HCT-116 colon
MOLT-4 leukemia = tested on: MOLT-4 leukemia
IGROV1 ovarian = tested on: IGROV1 ovarian
COLO 205 colon = tested on: COLO 205 colon
SW-620 colon = tested on: SW-620 colon
SR leukemia = tested on: SR leukemia
A498 renal = tested on: A498 renal
BT-549 breast = tested on: BT-549 breast
M14 melanoma = tested on: M14 melanoma

SMILES	TGI (HT29 colon) [µM]	TGI (HCT-116 colon) [µM]	TGI (MOLT-4 leukemia) [µM]	TGI (IGROV1 ovarian) [µM]	TGI (COLO 205 colon) [µM]	TGI (SW-620 colon) [µM]	TGI (SR leukemia) [µM]	TGI (A498 renal) [µM]	TGI (BT-549 breast) [µM]	TGI (M14 melanoma) [µM]
COc1ccc(N2C(=O)C(=O)N(c3ccccc3[N+](=O)[O-])C2=S)cc1	> 100	> 100	> 100	> 100	44.4	> 100	> 100	77.5		
O=C(O)CC1NC(/C(=C/c2ccccc2)NC(=O)c2ccccc2)OC1=O (stereo unspecified)	> 100	42.9	45.1	> 100	40.6	42		> 100	44.2	35.2
COc1cccc2c1OC(c1ccc(Cl)cc1)C([N+](=O)[O-])=C2 (stereo unspecified)	3.21	2.67	8.58	9.19	5.74		> 100		3.38	2.57
CC(C)CC1C(=O)NCCC(NC(=O)C(Cc2ccc(OC(C)(C)C)cc2)NC(=O)OC(C)(C)C)C(=O)NC(Cc2ccccc2)C(=O)NC(Cc2ccccc2)NC1=O (stereo unspecified)	19.6	17.4	3.48	31.7	11.7	13.6	72.1			32.2
CN(C(=O)C1=CCC2(CC1)OCCO2)c1ccccc1OS(=O)(=O)C(F)(F)F		> 100	> 100		> 100	> 100	> 100	> 100		> 100
Nc1ccc2c(c1)N(C(=O)c1cc3cc(NC(=O)c4cc5ccccc5o4)ccc3[nH]1)CC2CCl (stereo unspecified)	> 32.7	> 32.2	> 100	> 100	1.6	12.6		0.544	1.9	
OC1(C(F)(F)F)OCCN=C1C(F)(F)F (stereo unspecified)	> 100	> 100	> 100	> 100	> 100	> 100		> 100	> 100	> 100
CCc1cc2c(oc3cc4ccccc4cc32)c(=O)[nH]1	> 10	> 10		> 10		> 10	> 10		> 10	> 10
COc1ccc(N2C(=O)/C(=C(\C)c3cc4ccccc4oc3=O)N=C2c2cc([N+](=O)[O-])ccc2Cl)cc1	> 100	> 100	> 100	> 100	> 100	> 100	> 100	82.6		86.3
CCCCc1c(N(C)C)c(OC(C)=O)c(-c2cn(C)c3ccccc23)oc1=O	47.5	40.9	> 100		44.1	> 100	> 100	81.4	72.2	35.8
CN(CC(=O)O)c1ncc2c(n1)-c1ccccc1SC2	> 100	> 100	> 100	> 100	> 100	> 100	> 100	> 100		> 100
CCN(CC)CC1CCCCCCCCCCC1=O (stereo unspecified)	> 100	> 100	> 100	> 100	> 100	> 100	> 100	> 100		> 100
CC1=CC(C)C/C=C/C2C3OC3(C)C(C)C3C(Cc4c[nH]c5ccccc45)NC(=O)C23C(=O)C=CC(=O)C1O (stereo unspecified)	6.66	8.4	5.2	24.6	2	25.9		0.935	10.3	16.8
COC(=O)CCC1=CCC2(SC)C(=O)Nc3cccc1c32 (stereo unspecified)	> 100	> 100	> 100	> 100	> 100	> 100	> 100		> 100	> 100
CCOC(=O)c1c(-c2ccc(OC)cc2)c(C#N)c(=S)n(C2OC(COC(C)=O)C(OC(C)=O)C(OC(C)=O)C2OC(C)=O)c1-c1ccccc1 (stereo unspecified)	> 100	> 100	> 100	> 100		> 100	> 100		> 100	> 100
CC(C)(Br)C(Br)CCC1(C2CO2)CO1 (stereo unspecified)	> 5	> 5	> 5	> 5	> 5	> 5		> 5	> 5	> 5
Cc1cc(C)n(C(=C(C(Cl)=C(Cl)Cl)[N+](=O)[O-])n2nc(C)cc2C)n1	11.5	14.5	5	14.9	3.76	18.2		8.59	16.3	15.5
Nc1ncnc2c1ccn2C/C=C\CO	> 100	> 100	> 100	> 100	> 100	> 100		> 100	> 100	> 100
O=c1[nH]c2c(nc1NC13CC4CC(CC(C4)C1)C3)c(=O)oc1ccccc12	> 100	> 100	> 100	> 100	> 100	> 100	> 100			> 100
COCC1OC(Sc2ccccc2)C(O)C(OC)C1OC (stereo unspecified)	> 100	> 100	> 100	> 100	> 100	> 100	> 100		> 100	> 100
COc1ccccc1/C(=N\OCCC(=O)O)c1cccs1	> 100	> 100	> 100		> 100	> 100		> 100	> 100	
CC(=O)c1ccc(NCc2cc(O)ccc2O)cc1	> 100	37.4	> 100	> 100	43.8	> 100		> 100		38.4
OCC1OC(c2cccc3cc(O)c(O)cc23)CC1O (stereo unspecified)	> 100	> 100	> 100	> 100		> 100		> 100	> 100	> 100
CC(=O)Nc1ccc(C(=O)NN2C(=O)CSC2c2ccc([N+](=O)[O-])cc2)cc1 (stereo unspecified)	> 100	> 100	> 100	> 100	> 100	> 100		> 100		> 100

Reference: PubChem BioAssay (NCI)
